In PubChem BioAssay (NCI):
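All cell lines were grown in 96-well plates and treated with compound for 48 hours. GI50 = concentration required for 50% inhibition of growth. TGI: concentration producing complete growth inhibition.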

What was measured:
Experiment in all cases: inhibition of tumour cell growth, NCI panel, 48 h
[1] = tested on: ACHN renal
[2] = tested on: MOLT-4 leukemia
[3] = tested on: OVCAR-5 ovarian
[4] = tested on: COLO 205 colon
[5] = tested on: NCI/ADR-RES ovarian
[6] = tested on: A498 renal
[7] = tested on: K-562 leukemia
[8] = tested on: MALME-3M melanoma
[9] = tested on: EKVX NSCLC
[10] = tested on: UACC-257 melanoma

COc1ccc(/C(=C2\O[C@@H]([C@H]3COC(C)(C)O3)[C@H]3OC(C)(C)O[C@@H]23)c2cc(OC)c(OC)c(OC)c2)cc1O
GI50 [1]: 9.31 µM
TGI [1]: > 100 µM
GI50 [2]: 6.93 µM
TGI [2]: > 100 µM
GI50 [3]: > 100 µM
TGI [3]: > 100 µM
GI50 [4]: 17.4 µM
TGI [4]: > 100 µM
GI50 [5]: 2.52 µM
TGI [5]: 6.91 µM
GI50 [6]: 35.7 µM
TGI [6]: > 100 µM
GI50 [7]: 3.22 µM
TGI [7]: > 100 µM
GI50 [8]: 5.46 µM
TGI [8]: > 100 µM
GI50 [9]: 55.7 µM
TGI [9]: > 100 µM
GI50 [10]: > 100 µM
TGI [10]: > 100 µM

Cc1ccc(CS/C(=C\c2ccc([N+](=O)[O-])cc2)C(=O)c2ccc(F)cc2)cc1
GI50 [1]: 1.73 µM
TGI [1]: 3.1 µM
GI50 [2]: 3.35 µM
TGI [2]: > 100 µM
GI50 [3]: 2.6 µM
TGI [3]: 9.01 µM
GI50 [4]: 3.72 µM
TGI [4]: 16.6 µM
GI50 [5]: 3.28 µM
TGI [5]: > 100 µM
GI50 [6]: 15.6 µM
TGI [6]: 36 µM
GI50 [7]: 3.21 µM
TGI [7]: > 100 µM
GI50 [8]: 2.86 µM
TGI [8]: 10.4 µM
GI50 [9]: 4.72 µM
TGI [9]: 24 µM
GI50 [10]: 5.61 µM
TGI [10]: 19.9 µM

Cc1cc(N(CCOS(C)(=O)=O)CCOS(C)(=O)=O)ccc1C=Nc1ccc(-c2nc(Cc3ccccc3)sc2C)cc1
TGI [1]: 3.51 µM
TGI [2]: 22.4 µM
TGI [3]: 37.8 µM
TGI [4]: 4.76 µM
TGI [5]: 47.8 µM
TGI [6]: 6.39 µM
TGI [7]: 65.5 µM
TGI [8]: 26.8 µM
TGI [9]: 15.8 µM
TGI [10]: 28.4 µM

Cc1nc2cccc([N+](=O)[O-])c2c(NCCCN(C)C)c1C
TGI [1]: > 100 µM
TGI [2]: > 85.1 µM
TGI [3]: 60.2 µM
TGI [4]: 39.5 µM
TGI [5]: > 100 µM
TGI [6]: > 54 µM
TGI [7]: > 76.9 µM
TGI [8]: > 31.6 µM
TGI [9]: > 31.6 µM
TGI [10]: 57.3 µM

CNC(=O)OCc1c(COC(=O)NC)c(-c2ccc(Cl)c(Cl)c2)n2c1SCC2
TGI [1]: 17.6 µM
TGI [2]: 47.3 µM
TGI [3]: 10.8 µM
TGI [4]: 26.7 µM
TGI [5]: 40 µM
TGI [6]: 2.07 µM
TGI [7]: 52 µM
TGI [8]: 37.8 µM
TGI [9]: 72 µM
TGI [10]: 31.7 µM

CC1OC(n2cc(F)c(=O)[nH]c2=O)CCC1O (stereo not given)
TGI [1]: > 100 µM
TGI [2]: > 100 µM
TGI [3]: > 100 µM
TGI [4]: > 100 µM
TGI [5]: > 100 µM
TGI [6]: > 100 µM
TGI [7]: > 100 µM
TGI [8]: > 100 µM
TGI [9]: > 100 µM
TGI [10]: > 100 µM

Cc1c(C(=O)N/N=C/c2ccc(Cl)cc2)nnn1-c1ccnc2c(C(F)(F)F)cccc12
GI50 [1]: 2.02 µM
TGI [1]: 3.95 µM
GI50 [2]: 6.39 µM
TGI [2]: 35.3 µM
GI50 [3]: 15.6 µM
TGI [3]: 36.9 µM
GI50 [4]: 1.55 µM
TGI [4]: 3.58 µM
GI50 [5]: 3.86 µM
TGI [5]: 13.8 µM
GI50 [6]: 15.9 µM
TGI [6]: 45.1 µM
GI50 [7]: 5.74 µM
TGI [7]: 42.2 µM
GI50 [8]: 1.53 µM
TGI [8]: 4.4 µM
GI50 [9]: 25.3 µM
TGI [9]: > 100 µM
GI50 [10]: 2.89 µM
TGI [10]: 6.91 µM

O=C(O)CCCCC(CCSCc1ccccc1)SCc1ccccc1 (stereo not given)
GI50 [1]: 51.1 µM
TGI [1]: > 100 µM
GI50 [2]: 47 µM
TGI [2]: > 100 µM
GI50 [3]: > 100 µM
TGI [3]: > 100 µM
GI50 [4]: > 92.3 µM
TGI [4]: > 100 µM
GI50 [5]: 48.6 µM
TGI [5]: > 100 µM
GI50 [6]: > 38.9 µM
TGI [6]: > 96.7 µM
GI50 [7]: 44.5 µM
TGI [7]: > 100 µM
GI50 [8]: 87.7 µM
TGI [8]: > 100 µM
GI50 [9]: 40.3 µM
TGI [9]: > 100 µM
GI50 [10]: > 67.1 µM
TGI [10]: > 100 µM

O=NN(Cc1ccc(Cl)cc1)C(C(=O)O)c1ccccc1 (stereo not given)
TGI [1]: > 100 µM
TGI [2]: > 100 µM
TGI [3]: > 100 µM
TGI [4]: > 100 µM
TGI [5]: > 100 µM
TGI [6]: > 100 µM
TGI [7]: > 100 µM
TGI [8]: > 100 µM
TGI [9]: > 100 µM
TGI [10]: > 100 µM

Cc1cc(I)cc(CNCCCN2CCSCC2)c1O
GI50 [1]: 17.5 µM
TGI [1]: 33.8 µM
GI50 [2]: 15.1 µM
TGI [2]: 33.9 µM
GI50 [3]: 15.9 µM
TGI [3]: 41.7 µM
GI50 [4]: 15 µM
TGI [4]: 30.8 µM
GI50 [5]: 18.1 µM
TGI [5]: 36.6 µM
GI50 [6]: 13.7 µM
TGI [6]: 28.5 µM
GI50 [7]: 8.4 µM
TGI [7]: 26.1 µM
GI50 [8]: 17.3 µM
TGI [8]: 33.9 µM
GI50 [9]: 19.1 µM
TGI [9]: 50.3 µM
GI50 [10]: 16.6 µM
TGI [10]: 34.1 µM

CCc1c(Oc2ccc(C(C)=O)cc2)c2ccccc2[nH]c1=O
GI50 [1]: 16.7 µM
TGI [1]: 63.5 µM
GI50 [2]: 28 µM
TGI [2]: > 100 µM
GI50 [3]: 31.8 µM
TGI [3]: > 100 µM
GI50 [4]: 13.7 µM
TGI [4]: 40.7 µM
GI50 [5]: 23 µM
TGI [5]: > 74 µM
GI50 [6]: 17.2 µM
TGI [6]: 32 µM
GI50 [7]: 18.8 µM
TGI [7]: > 76.9 µM
GI50 [8]: 9.09 µM
TGI [8]: 42.3 µM
GI50 [9]: 9.65 µM
TGI [9]: > 66 µM
GI50 [10]: 14.5 µM
TGI [10]: 55.1 µM

COc1cccc(/C=N/NC(=O)c2ccccc2Nc2ccnc(C(F)(F)F)c2)c1O
GI50 [1]: 0.279 µM
TGI [1]: > 100 µM
GI50 [2]: 0.196 µM
TGI [2]: 1.19 µM
GI50 [3]: 0.701 µM
TGI [3]: 98.3 µM
GI50 [4]: 0.353 µM
TGI [4]: > 53.8 µM
GI50 [5]: 0.512 µM
TGI [5]: 27.9 µM
GI50 [6]: 5.11 µM
TGI [6]: > 42.8 µM
GI50 [7]: 0.369 µM
TGI [7]: 12.3 µM
GI50 [8]: 0.964 µM
TGI [8]: 33.6 µM
GI50 [9]: 0.517 µM
TGI [9]: > 100 µM
GI50 [10]: 0.346 µM
TGI [10]: 5.88 µM

CCCCC/C(C=C(C#N)C#N)=C/c1ccccc1
GI50 [1]: 4.53 µM
TGI [1]: 16.5 µM
GI50 [2]: 2.37 µM
TGI [2]: 6.98 µM
GI50 [3]: 4.11 µM
TGI [3]: 10.7 µM
GI50 [4]: 4.91 µM
TGI [4]: 16.3 µM
GI50 [5]: 2.48 µM
TGI [5]: 6.46 µM
GI50 [6]: 9.72 µM
TGI [6]: 23.2 µM
GI50 [7]: 3.8 µM
TGI [7]: 35.3 µM
GI50 [8]: 3.11 µM
TGI [8]: 16.5 µM
GI50 [9]: 5.98 µM
TGI [9]: > 55.7 µM
GI50 [10]: 17.2 µM
TGI [10]: 47.6 µM

O=C1c2c(c3c4ccccc4n(CCCCCCBr)c3c3[nH]c4ccccc4c23)C(=O)N1O
GI50 [1]: 2.61 µM
TGI [1]: 11.1 µM
GI50 [2]: 1.94 µM
TGI [2]: 5.68 µM
GI50 [3]: 3.22 µM
TGI [3]: 17.4 µM
GI50 [4]: 1.97 µM
TGI [4]: 4.7 µM
GI50 [5]: 2.49 µM
TGI [5]: 7.8 µM
GI50 [6]: 2.89 µM
TGI [6]: 9.14 µM
GI50 [7]: 2.8 µM
TGI [7]: 10.2 µM
GI50 [8]: 2.65 µM
TGI [8]: 7.74 µM
GI50 [9]: 2.58 µM
TGI [9]: 9.57 µM
GI50 [10]: 2.74 µM
TGI [10]: 6.04 µM
